From patent US20250345370A1, “MICROBIAL LIBERATION OF N-METHYLSEROTONIN FROM ORANGE FIBER” (Washington University, priority 2022, published 2025)

Tests used:
5-HT2A receptor = target: T1, 5-HT2A receptor (Rattus norvegicus, UniProt P14842); conditions: cultured rat muscle, agonist activity on the 5-HT2A receptor; cited from earlier work
T1 construct: increase glucose uptake in cultured rat muscle via its agonist activity on the 5-HT2A receptor; host or cells: cultured rat muscle

[1] = Targeted LC-QqQ-MS of N-methylserotonin levels in gut contents, tissues, plasma and feces of gnotobiotic mice
colon gene expression = experiment: RNA-Seq of colonic tissue of germ-free mice treated with 50 mg/kg/d N-methylserotonin; format: in vivo, germ-free C57BL/6J mice; conditions: for log2 fold-change: colon
5-Htr2A = 5-Htr2A (Homo sapiens, UniProt P28223); conditions: in vitro studies; cited from earlier work
5-Htr2A, sequence (P28223 whole entry): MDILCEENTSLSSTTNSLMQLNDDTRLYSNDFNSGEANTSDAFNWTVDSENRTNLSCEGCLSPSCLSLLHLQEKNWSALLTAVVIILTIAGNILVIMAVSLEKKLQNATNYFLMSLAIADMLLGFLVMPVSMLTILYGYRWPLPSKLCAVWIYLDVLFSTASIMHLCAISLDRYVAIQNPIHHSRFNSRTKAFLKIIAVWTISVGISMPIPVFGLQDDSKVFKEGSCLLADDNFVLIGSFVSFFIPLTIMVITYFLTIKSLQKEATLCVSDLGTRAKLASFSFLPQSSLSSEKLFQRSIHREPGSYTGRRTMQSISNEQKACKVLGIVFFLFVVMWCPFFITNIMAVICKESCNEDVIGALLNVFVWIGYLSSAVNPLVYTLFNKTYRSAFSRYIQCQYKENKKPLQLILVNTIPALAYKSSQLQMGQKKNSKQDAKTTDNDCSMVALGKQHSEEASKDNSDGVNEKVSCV

[2] = 14-member consortium, 10% orange fiber diet

T1 sequence (P14842 whole entry): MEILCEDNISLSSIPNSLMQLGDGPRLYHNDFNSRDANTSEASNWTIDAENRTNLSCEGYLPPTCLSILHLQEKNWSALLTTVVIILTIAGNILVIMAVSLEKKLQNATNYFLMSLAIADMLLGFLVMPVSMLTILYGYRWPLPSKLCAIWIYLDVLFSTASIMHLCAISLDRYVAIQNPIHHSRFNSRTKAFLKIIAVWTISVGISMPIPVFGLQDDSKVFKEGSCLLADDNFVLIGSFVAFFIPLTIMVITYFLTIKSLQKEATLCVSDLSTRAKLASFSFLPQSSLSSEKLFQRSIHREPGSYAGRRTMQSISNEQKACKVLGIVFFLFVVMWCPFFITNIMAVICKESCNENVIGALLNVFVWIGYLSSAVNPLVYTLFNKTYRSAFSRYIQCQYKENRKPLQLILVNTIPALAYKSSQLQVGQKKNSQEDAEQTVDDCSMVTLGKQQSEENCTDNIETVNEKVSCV

In the case of `CNCCc1c[nH]c2ccc(O)cc12` [N-methylserotonin], the glucose uptake (5-HT2A receptor) is given as “able to increase glucose uptake”, the “fecal N-methylserotonin levels” value ([1]; 14-member community, orange fiber-supplemented HiSF-LoFV diet) is given as 131±19 ng/g feces and the “N-methylserotonin in cecal contents” value [1, 2] is given as 173 ± 14 ng/g. The “N-methylserotonin in cecal tissue” value [1, 2] was 130 ± 13 ng/g, the “N-methylserotonin in colonic contents” value [1, 2] was 139 ± 13 ng/g and the “N-methylserotonin in colonic tissue” value [1, 2] was 164 ± 25 ng/g. The N-methylserotonin in plasma [1, 2] was 1.22 ± 0.76 ng/mL, the “N-methylserotonin in small intestine, liver, gastrocnemius muscle and kidney” value [1, 2] was < 1 ng/g and the “N-methylserotonin in cecal or colonic contents or intestinal and extra-intestinal tissues” value ([1]; 14-member consortium, 10% pea fiber diet, below limits of detection) was < 0.5 ng/g. The “fecal N-methylserotonin levels” value ([1]; germ-free mice, 1 mg/kg/day in drinking water) was 133.5 ± 15 ng/g, the “colonic expression of known (Htr7, Htr2A) or related (Htr3, Htr4, Htr5 and Htr6) receptors” value (colon gene expression; 50 mg/kg/d vs untreated) was “did not reveal any statistically significant effects” and the “number of genes with statistically significant differences in expression in colonic tissue” value (colon gene expression; 50 mg/kg/d vs untreated, FDR-adjusted p<0.05) was “Seven hundred and forty-eight”. The log2 fold-change (colon gene expression; gene 6430548M08Rik) was 0.47, the log2 fold-change (colon gene expression; gene Aass) was 4.35 and the log2 fold-change (colon gene expression; gene Adgrg6) was 1.06. For the same molecule, the log2 fold-change (colon gene expression; gene Adgrl1) was 0.82, the log2 fold-change (colon gene expression; gene Aldh1l2) was 1.36 and the log2 fold-change (colon gene expression; gene Ankrd35) was 1.27. It also gave a log2 fold-change (colon gene expression; gene Anxa9) of 3.41, a log2 fold-change (colon gene expression; gene Arhgef17) of 0.43 and a log2 fold-change (colon gene expression; gene Atf5) of 0.70. The log2 fold-change (colon gene expression; gene Atp6v1c2) was 5.46, the log2 fold-change (colon gene expression; gene Azgp1) was 3.05 and the log2 fold-change (colon gene expression; gene Baiap2) was 0.55. For the same molecule, the log2 fold-change (colon gene expression; gene Bcl9l) was 0.57, the log2 fold-change (colon gene expression; gene Bhlha15) was 2.54 and the log2 fold-change (colon gene expression; gene C1s2) was 6.81. The log2 fold-change (colon gene expression; gene Cabp1) was 2.18, the log2 fold-change (colon gene expression; gene Cbx6) was 0.65 and the log2 fold-change (colon gene expression; gene Cecr2) was 1.23. It also gave a log2 fold-change (colon gene expression; gene Cirbp) of 0.65, a log2 fold-change (colon gene expression; gene Clca4a) of 0.41 and a log2 fold-change (colon gene expression; gene Col18a1) of 0.40. It also gave a log2 fold-change (colon gene expression; gene Crybg2) of 0.56, a log2 fold-change (colon gene expression; gene Dbp) of 1.14 and a log2 fold-change (colon gene expression; gene Derl3) of 3.02. It also gave a log2 fold-change (colon gene expression; gene Dixdc1) of 0.49, a log2 fold-change (colon gene expression; gene Dkkl1) of 4.99 and a log2 fold-change (colon gene expression; gene Dnase2b) of 6.74. It also gave a log2 fold-change (colon gene expression; gene Doxl2) of 0.01, a log2 fold-change (colon gene expression; gene Epop) of 1.75 and a log2 fold-change (colon gene expression; gene Fam214a) of 0.49. The log2 fold-change (colon gene expression; gene Fbf1) was 0.51, the log2 fold-change (colon gene expression; gene Fgl1) was 3.75 and the log2 fold-change (colon gene expression; gene Gdf7) was 2.66. It also gave a log2 fold-change (colon gene expression; gene Gdf10) of 0.91, a log2 fold-change (colon gene expression; gene Gm973) of 1.71 and a log2 fold-change (colon gene expression; gene Gprc5c) of 2.14. It also gave a log2 fold-change (colon gene expression; gene Gsdma) of 3.93, a log2 fold-change (colon gene expression; gene Gspt2) of 1.14 and a log2 fold-change (colon gene expression; gene Hdac7) of 0.63. For the same molecule, the log2 fold-change (colon gene expression; gene Hoxd9) was 1.18, the log2 fold-change (colon gene expression; gene Igfbp5) was 0.78 and the log2 fold-change (colon gene expression; gene Impdh1) was 0.53. For the same molecule, the log2 fold-change (colon gene expression; gene Islr) was 0.52, the log2 fold-change (colon gene expression; gene Itpripl2) was 0.42 and the log2 fold-change (colon gene expression; gene Jag2) was 0.92. It also gave a log2 fold-change (colon gene expression; gene Kdm6b) of 0.57, a log2 fold-change (colon gene expression; gene Krt14) of 2.57 and a log2 fold-change (colon gene expression; gene Lamc1) of 0.37. For the same molecule, the log2 fold-change (colon gene expression; gene Lrrc75b) was 2.59, the log2 fold-change (colon gene expression; gene Man2a2) was 0.35 and the log2 fold-change (colon gene expression; gene Masp1) was 1.38. For the same molecule, the log2 fold-change (colon gene expression; gene Mns1) was 1.12, the log2 fold-change (colon gene expression; gene Mtss2) was 0.61 and the log2 fold-change (colon gene expression; gene Mxra8) was 0.45. It also gave a log2 fold-change (colon gene expression; gene Nkx3-1) of 0.01, a log2 fold-change (colon gene expression; gene Npr1) of 0.99 and a log2 fold-change (colon gene expression; gene Nr1d1) of 0.81. It also gave a log2 fold-change (colon gene expression; gene Nucb2) of 3.53, a log2 fold-change (colon gene expression; gene Pacsin3) of 0.87 and a log2 fold-change (colon gene expression; gene Panct2) of 1.72. For the same molecule, the log2 fold-change (colon gene expression; gene Pate4) was 7.55, the log2 fold-change (colon gene expression; gene Pate9) was 0.01 and the log2 fold-change (colon gene expression; gene Pate14) was 6.47. For the same molecule, the log2 fold-change (colon gene expression; gene Per2) was 0.67, the log2 fold-change (colon gene expression; gene Pgm5) was 0.29 and the log2 fold-change (colon gene expression; gene Pik3ip1) was 1.04. For the same molecule, the log2 fold-change (colon gene expression; gene Pitpnm3) was 0.67, the log2 fold-change (colon gene expression; gene Plau) was 0.93 and the log2 fold-change (colon gene expression; gene Pou3f3) was 1.18. For the same molecule, the log2 fold-change (colon gene expression; gene Prrc2a) was 0.49, the log2 fold-change (colon gene expression; gene Ptges) was 1.14 and the log2 fold-change (colon gene expression; gene Rapgef3) was 0.54. The log2 fold-change (colon gene expression; gene Rbms3) was 0.45, the log2 fold-change (colon gene expression; gene Rcn1) was 2.72 and the log2 fold-change (colon gene expression; gene Rec8) was 1.38. The log2 fold-change (colon gene expression; gene Rgs7bp) was 0.57, the log2 fold-change (colon gene expression; gene Rhobtb3) was 0.86 and the log2 fold-change (colon gene expression; gene Serpine2) was 2.50. The log2 fold-change (colon gene expression; gene Serpinf1) was 0.82, the log2 fold-change (colon gene expression; gene Shroom1) was 2.33 and the log2 fold-change (colon gene expression; gene Slc4a8) was 1.04. For the same molecule, the log2 fold-change (colon gene expression; gene Slc23a1) was 1.80, the log2 fold-change (colon gene expression; gene Sp8) was 2.57 and the log2 fold-change (colon gene expression; gene Spinkl) was 7.58. It also gave a log2 fold-change (colon gene expression; gene Spock2) of 0.54, a log2 fold-change (colon gene expression; gene Sptb) of 0.85 and a log2 fold-change (colon gene expression; gene Stard5) of 0.43. The log2 fold-change (colon gene expression; gene Sva) was 6.86, the log2 fold-change (colon gene expression; gene Syvn1) was 0.58 and the log2 fold-change (colon gene expression; gene Tgfbr3) was 0.43. For the same molecule, the log2 fold-change (colon gene expression; gene Tgm4) was 9.55, the log2 fold-change (colon gene expression; gene Tmem44) was 0.56 and the log2 fold-change (colon gene expression; gene Tns1) was 0.44. For the same molecule, the log2 fold-change (colon gene expression; gene Uox) was 2.40, the log2 fold-change (colon gene expression; gene Upk1b) was 2.61 and the log2 fold-change (colon gene expression; gene Vat1) was 0.64. The log2 fold-change (colon gene expression; gene Vwa1) was 0.64, the log2 fold-change (colon gene expression; gene Zbtb4) was 0.37 and the log2 fold-change (colon gene expression; gene Zbtb16) was 1.21. The log2 fold-change (colon gene expression; gene Zfhx3) was 0.54 and the binding (5-Htr2A) was “binds”.
